According to patent US20160009755A1, “CYRRHETINIC ALKYL ESTERS AND PROTECTED DERIVATIVES THEREOF” (priority 2013, published 2016):

Tested on: secreted IL-8 in normal human epidermal keratinocytes (NHEK)
Test: IL-8 secretion in PMA-stimulated NHEK (anti-inflammatory test)
Assay type: cell-based
Experimental: In an exemplary test, NHEK were cultured in a medium for 24 hours. […] Then the culture medium was removed and replaced with another culture medium containing or not (control) the […] methyl ester or the reference compound and containing an inflammatory inducer (PMA) and the cells were incubated for 24 hours. A control without inducer was performed in parallel. After incubation, the culture supernatants were collected in order to measure the quantity of secreted IL-8.

## COC(=O)[C@@]1(C)CC[C@]2(C)CC[C@]3(C)C(=CC(=O)[C@@H]4[C@@]5(C)CC[C@H](O)C(C)(C)[C@@H]5CC[C@]43C)[C@@H]2C1 [Cyrrhetinic methyl ester, cyrrhetinic methyl ester]
15.625 μM
  % Stimulated Control: 42%
  Avg. IL-8: 1349 pg/mL
31.25 μM
  % Stimulated Control: 28%
  Avg. IL-8: 907 pg/mL
62.5 μM
  % Stimulated Control: 28%
  Avg. IL-8: 902 pg/mL
IL-8 secretion, 15.625 μM
  % Inhibition: 59%
IL-8 secretion, 31.25 μM
  % Inhibition: 73%
IL-8 secretion, 62.5 μM
  % Inhibition: 73%
Maximum over tested concentrations (up to)
  inhibition of IL-8 secretion: ≤ 73%

## CC1(C)[C@@H](O)CC[C@]2(C)[C@H]3C(=O)C=C4[C@@H]5C[C@@](C)(C(=O)O)CC[C@]5(C)CC[C@@]4(C)[C@]3(C)CC[C@@H]12 [Glycyrrhetinic acid, glycyrrhetinic acid]
0.5 μM
  % Stimulated Control: 95%
  Avg. IL-8: 3037 pg/mL
1 μM
  % Stimulated Control: 108%
  Avg. IL-8: 3470 pg/mL
2 μM
  % Stimulated Control: 139%
  Avg. IL-8: 4450 pg/mL
Homo sapiens, IL-8 secretion, 0.5 μM
  inhibition at 0.5 µM: 5%
Homo sapiens, IL-8 secretion, 1 μM
  inhibition at 1 µM: -9%
Homo sapiens, IL-8 secretion, 2 μM
  inhibition at 2 µM: -40%

## CN[C@@H]1C[C@H]2O[C@@](C)([C@@H]1OC)n1c3ccccc3c3c4c(c5c6ccccc6n2c5c31)C(=O)NC4 [Staurosporine, staurosporine]
10^−9M
  % Stimulated Control: 18%
  Avg. IL-8: 588 pg/mL
